Publication PMC11224940, “矩阵热转移技术鉴定有机酸类代谢物的结合蛋白质” (Chinese Journal of Chromatography, 2024)

Biological target: T1, FH (富马酸脱氢酶) (Homo sapiens, UniProt P07954)
T1 construct: endogenous protein in desalted HeLa cell lysate, native, no tag
T1 sequence (P07954 45-510): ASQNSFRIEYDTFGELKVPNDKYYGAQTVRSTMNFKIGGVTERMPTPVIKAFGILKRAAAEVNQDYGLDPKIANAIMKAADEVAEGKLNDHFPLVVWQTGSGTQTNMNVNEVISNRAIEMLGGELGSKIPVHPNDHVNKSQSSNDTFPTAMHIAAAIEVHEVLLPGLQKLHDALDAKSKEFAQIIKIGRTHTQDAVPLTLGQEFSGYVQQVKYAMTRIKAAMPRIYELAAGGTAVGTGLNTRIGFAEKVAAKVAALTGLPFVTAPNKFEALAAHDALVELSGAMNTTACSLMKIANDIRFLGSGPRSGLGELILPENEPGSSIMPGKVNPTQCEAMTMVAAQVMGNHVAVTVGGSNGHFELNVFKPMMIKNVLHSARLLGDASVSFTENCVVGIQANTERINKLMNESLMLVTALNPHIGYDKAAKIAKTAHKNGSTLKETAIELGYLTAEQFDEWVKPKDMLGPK
Assay: matrix thermal shift assay (mTSA), DIA proteomics, dose-response fit
Assay type: biochemical
Conditions: desalted HeLa lysate in PBS, endogenous metabolites removed, 50 min room temperature, then 52 ℃ 3 min; 0.004-2 mmol/L ligand; thermal stabilisation; only four ligand concentrations; read-out: 亲和力 (EC50)

Compound: O=C(O)/C=C/C(=O)O [富马酸]
- EC50: 548 µM
